Among the data in patent US20050004167A1, “Branched chain amino acid-dependent aminotransferase inhibitors and their use in the treatment of neurodegenerative diseases” (WARNER-LAMBERT COMPANY LLC, priority 2001, published 2005) are melting point and IC50 values, retold here.

Data set [1] deals with T1, human Branched Chain Amino Acid Aminotransferase cytosolic form (hBCATc) (Homo sapiens, UniProt P54687).
T1 construct: made in house; host or cells: E. coli BL21(DE3)
T1 sequence (P54687 1-386): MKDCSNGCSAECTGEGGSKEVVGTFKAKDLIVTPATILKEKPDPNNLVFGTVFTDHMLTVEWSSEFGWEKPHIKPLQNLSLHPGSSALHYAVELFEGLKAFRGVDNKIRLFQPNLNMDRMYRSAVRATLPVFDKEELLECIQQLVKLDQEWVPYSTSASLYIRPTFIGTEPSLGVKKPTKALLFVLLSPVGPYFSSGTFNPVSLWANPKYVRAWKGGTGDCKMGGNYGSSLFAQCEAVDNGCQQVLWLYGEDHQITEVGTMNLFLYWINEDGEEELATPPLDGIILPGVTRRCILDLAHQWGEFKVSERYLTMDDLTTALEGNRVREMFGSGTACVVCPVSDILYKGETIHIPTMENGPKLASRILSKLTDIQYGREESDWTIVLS
The data set is described as follows: In vitro coupled enzyme assay (glutamate dehydrogenase, NADH formation), human BCATc. The class given is biochemical. The settings on record: recombinant human BCATc, 37° C., 25 mM phosphate buffer pH 7.8; several values in a cell = repeat determinations; read-out: RhBCATc. The method, boiled down: (§1)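 At 37 °C in 25 mM phosphate pH 7.8 with 2 mM DTT, 1.25 μg His-tag-purified E. coli-expressed BCAT transaminated 750 μM L-leucine with 500 μM α-ketoglutarate and 10 μM PLP. Glutamate was coupled via glutamate dehydrogenase (1 mM NAD+, 4 mM ADP) to NADH formation at 340 nm. Compounds were added in DMSO up to 5% v/v.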

Data set [2] has as its target T2, rat BCAT cytosolic form (Rattus norvegicus, UniProt P54690).
T2 construct: made in house; host or cells: E. coli BL21(DE3)
T2 sequence (P54690 1-411): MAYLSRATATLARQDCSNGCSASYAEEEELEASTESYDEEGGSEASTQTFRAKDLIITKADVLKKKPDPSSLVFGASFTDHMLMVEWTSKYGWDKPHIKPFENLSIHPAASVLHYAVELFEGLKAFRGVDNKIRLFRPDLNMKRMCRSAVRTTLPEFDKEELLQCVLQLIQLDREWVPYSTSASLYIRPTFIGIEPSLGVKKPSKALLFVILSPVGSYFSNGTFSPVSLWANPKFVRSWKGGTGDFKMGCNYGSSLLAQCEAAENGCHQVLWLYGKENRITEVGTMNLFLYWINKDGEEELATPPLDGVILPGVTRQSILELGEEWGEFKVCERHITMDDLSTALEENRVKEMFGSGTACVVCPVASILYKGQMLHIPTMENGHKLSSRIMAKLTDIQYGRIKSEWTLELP
The data set is described as follows: In vitro coupled enzyme assay (glutamate dehydrogenase, NADH formation), rat BCATc. The class given is biochemical. The settings on record: recombinant rat BCATc, 37° C., 25 mM phosphate buffer pH 7.8; several values in a cell = repeat determinations; read-out: RrBCATc. In outline:
as §1

“And” between values parts separate entries of the source, which are not always exact repeats. Identical values can stand only once. A value given as a limit tells only on which side of the number the result lay.

For orientation: melting point means the temperature, or range, at which the solid turns liquid. `Cc1cccc(S(=O)(=O)NNC(=O)c2cc3cc(Cl)cc(Cl)c3o2)c1` [Example 72, 2-Benzofurancarboxylic acid, 5,7-dichloro 2-[(3-methylphenyl)sulfonyl]-hydrazide]: the melting point lay in the range of 230.4 to 231.1 °C. Also, the IC50 in data set [1] is > 10 µM and 5.35 µM. In addition, in data set [2], the IC50 turned out to be 1.86 µM.

The compound `O=C(NNS(=O)(=O)c1cccc(Br)c1)c1cc2cc(Cl)cc(Cl)c2o1` [Example 74, 2-Benzofurancarboxylic acid, 5,7-dichloro 2-[(3-bromophenyl)sulfonyl]-hydrazide] came in with a melting point of 248.5 to 248.8 °C. The IC50 in data set [1] was 64.5 µM. Besides, the IC50 in data set [2] was 3.71 µM.

On to `O=C(NNS(=O)(=O)c1cccc(Cl)c1)c1cc2cc(Cl)cc(Cl)c2o1` [Example 75, 2-Benzofurancarboxylic acid, 5,7-dichloro 2-[(3-chlorophenyl)sulfonyl]-hydrazide], for which the melting point lay within 245.6 to 245.7 °C. In addition, in data set [1], the IC50 is > 10 µM and 5.4 µM. Besides, the IC50 in data set [2] is 0.88 µM.

With `O=C(NNS(=O)(=O)c1ccccc1OC(F)(F)F)c1cc2cc(Cl)cc(Cl)c2o1` [Example 76, 2-Benzofurancarboxylic acid, 5,7-dichloro 2-[[2-(trifluoromethoxy)phenyl]-sulfonyl]hydrazide], the melting point was in the range of 234.5 to 236.1 °C. For the same compound, the IC50 in data set [1] is 11.2 µM. Besides, the IC50 in data set [2] came out at 1.51 µM.

Compound `O=C(NNS(=O)(=O)c1ccccc1C(F)(F)F)c1cnc2ccccc2c1` [Example 135, 3-Quinolinecarboxylic acid, 2-[(2-trifluoromethylphenyl)sulfonyl]hydrazide] gave a melting point of 203.6 to 204.4 °C. Moreover, the IC50 in data set [1] was 13 µM. For the same compound, the IC50 in data set [2] turned out to be 2.8 µM.

For `O=C(NNS(=O)(=O)c1ccccc1OC(F)(F)F)c1cnc2ccccc2c1` [Example 137, 3-Quinolinecarboxylic acid, 2-[(2-trifluoromethoxyphenyl)sulfonyl]hydrazide], the melting point was 175.1 to 175.9 °C. For the same compound, the IC50 in data set [1] came out at 41 µM. Also, in data set [2], the IC50 was 14 µM.

Take `O=C(NNS(=O)(=O)c1ccccc1)c1ccc2c(c1)CCO2` [Example 149, 2,3-Dihydro-benzofuran-5-carboxylic acid 2-(phenylsulfonyl)hydrazide]: the melting point was 181 to 183 °C. In addition, in data set [1], the IC50 was determined as 17.9 µM. Further, the IC50 in data set [2] is 3.3 µM.
